Experimental findings from publication PMC6385813, “Macrocyclisation of small peptides enabled by oxetane incorporation” (Chemical Science, 2019) are described below.

This series in a line: head-to-tail lactamisation of free linear peptides (H-/-OH), DEPBT (2 equiv), iPr2EtN (2 equiv). The settings on record: DMF, 1.0 mM, 25.0 °C.

Take `CC(C)C[C@@H]1NC(=O)[C@H](Cc2ccc(O)cc2)NC(=O)[C@H](C)NC2(CNC(=O)[C@H](C)NC1=O)COC2` [H-Ala-GOx-Ala-Tyr-Leu-OH]: where the note is “from CC(C)C[C@H](NC(=O)[C@H](Cc1ccc(O)cc1)NC(=O)[C@H](C)NC1(CNC(=O)[C@H](C)N)COC1)C(=O)O, 15-membered ring, 24.0 h”, the ring closure, isolated yield was 57%.
For the compound `CC(C)C[C@@H]1NC(=O)[C@H](Cc2ccc(O)cc2)NC(=O)[C@H](C)NC(=O)CNC(=O)[C@H](C)NC1=O` [H-Ala-Gly-Ala-Tyr-Leu-OH], under “from CC(C)C[C@H](NC(=O)[C@H](Cc1ccc(O)cc1)NC(=O)[C@H](C)NC(=O)CNC(=O)[C@H](C)N)C(=O)O, 15-membered ring, 24.0 h”, the ring closure, isolated yield worked out at 40%.
Consider `CC(C)C[C@@H]1NC(=O)[C@H](CC(=O)OC(C)(C)C)NC(=O)CNC2(CNC1=O)COC2` [H-Asp(tBu)-Leu-GOx-Gly-OH], for which the ring closure, isolated yield (from CC(C)C[C@H](NC(=O)[C@@H](N)CC(=O)OC(C)(C)C)C(=O)NCC1(NCC(=O)O)COC1, 12-membered ring, 48.0 h) came out at 49%.
For the compound `CC(C)C[C@@H]1NC(=O)[C@H](CC(=O)OC(C)(C)C)NC(=O)CNC(=O)CNC1=O` [H-Asp(tBu)-Leu-Gly-Gly-OH], the ring closure, isolated yield (from CC(C)C[C@H](NC(=O)[C@@H](N)CC(=O)OC(C)(C)C)C(=O)NCC(=O)NCC(=O)O, 12-membered ring, 48.0 h) worked out at 14%.
As for `CC(C)C[C@@H]1NC(=O)[C@H]2CCCN2C(=O)CNC2(CNC1=O)COC2` [H-D-Pro-Leu-GOx-Gly-OH], the ring closure, isolated yield (from CC(C)C[C@H](NC(=O)[C@H]1CCCN1)C(=O)NCC1(NCC(=O)O)COC1, 12-membered ring, 48.0 h) amounted to 54%.
For the compound `CC(C)C[C@@H]1NC(=O)[C@H]2CCCN2C(=O)CNC(=O)CNC1=O` [H-D-Pro-Leu-Gly-Gly-OH], the ring closure, isolated yield (from CC(C)C[C@H](NC(=O)[C@H]1CCCN1)C(=O)NCC(=O)NCC(=O)O, 12-membered ring, 48.0 h) came out at 0%.
Consider `CC(C)C[C@@H]1NC(=O)[C@H](Cc2ccc(O)cc2)NC(=O)[C@H](C)NC2(CNC(=O)[C@H](C)NC1=O)COC2` [H-GOx-Ala-Tyr-Leu-Ala-OH], for which the ring closure, isolated yield (from CC(C)C[C@H](NC(=O)[C@H](Cc1ccc(O)cc1)NC(=O)[C@H](C)NC1(CN)COC1)C(=O)N[C@@H](C)C(=O)O, 15-membered ring, 24.0 h) is 43%.
On to `CC(C)C[C@@H]1NC(=O)[C@H](Cc2ccc(O)cc2)NC(=O)[C@H](C)NC(=O)CNC(=O)[C@H](C)NC1=O` [H-Gly-Ala-Tyr-Leu-Ala-OH], for which, under “from CC(C)C[C@H](NC(=O)[C@H](Cc1ccc(O)cc1)NC(=O)[C@H](C)NC(=O)CN)C(=O)N[C@@H](C)C(=O)O, 15-membered ring”, the ring closure, isolated yield was found to be 30%.
`CC(C)C[C@@H]1NC(=O)[C@H](Cc2ccc(O)cc2)NC(=O)[C@H](C)NC(=O)C(C)(C)NC(=O)[C@H](C)NC1=O` [H-Leu-Ala-Aib-Ala-Tyr-OH]: under “from CC(C)C[C@H](N)C(=O)N[C@@H](C)C(=O)NC(C)(C)C(=O)N[C@@H](C)C(=O)N[C@@H](Cc1ccc(O)cc1)C(=O)O, 15-membered ring, 24.0 h”, the ring closure, isolated yield amounted to 29%.
As to `CC(C)C[C@@H]1NC(=O)[C@H](Cc2ccc(O)cc2)NC(=O)[C@H](C)NC2(CNC(=O)[C@H](C)NC1=O)COC2` [H-Leu-Ala-GOx-Ala-Tyr-OH], where the note is “from CC(C)C[C@H](N)C(=O)N[C@@H](C)C(=O)NCC1(N[C@@H](C)C(=O)N[C@@H](Cc2ccc(O)cc2)C(=O)O)COC1, 15-membered ring, 24.0 h”, the ring closure, isolated yield was found to be 51%.
With `CC(C)C[C@@H]1NC(=O)[C@H](Cc2ccc(O)cc2)NC(=O)[C@@H]2CCCN2C2(CNC(=O)[C@H](C)NC1=O)COC2` [H-Leu-Ala-GOx-Pro-Tyr-OH], where the note is “from CC(C)C[C@H](N)C(=O)N[C@@H](C)C(=O)NCC1(N2CCC[C@H]2C(=O)N[C@@H](Cc2ccc(O)cc2)C(=O)O)COC1, 15-membered ring, 48.0 h”, the ring closure, isolated yield was 48%.
In the case of `CC(C)C[C@@H]1NC(=O)[C@H](Cc2ccc(O)cc2)NC(=O)[C@H](C)NC(=O)CNC(=O)[C@H](C)NC1=O` [H-Leu-Ala-Gly-Ala-Tyr-OH], where the note is “from CC(C)C[C@H](N)C(=O)N[C@@H](C)C(=O)NCC(=O)N[C@@H](C)C(=O)N[C@@H](Cc1ccc(O)cc1)C(=O)O, 15-membered ring, 24.0 h”, the ring closure, isolated yield was found to be 31%.
Regarding `CC(C)C[C@@H]1NC(=O)[C@H](Cc2ccc(O)cc2)NC(=O)[C@@H]2CCCN2C(=O)CNC(=O)[C@H](C)NC1=O` [H-Leu-Ala-Gly-Pro-Tyr-OH], the ring closure, isolated yield (from CC(C)C[C@H](N)C(=O)N[C@@H](C)C(=O)NCC(=O)N1CCC[C@H]1C(=O)N[C@@H](Cc1ccc(O)cc1)C(=O)O, 15-membered ring) turned out to be 13%.
On to `CC(C)C[C@@H]1NC(=O)[C@H](Cc2ccc(O)cc2)NC(=O)[C@H](C)NC(C)(C)CNC(=O)[C@H](C)NC1=O` [H-Leu-Ala-NHCH2C(Me)2-Ala-Tyr-OH], for which the ring closure, isolated yield (from CC(C)C[C@H](N)C(=O)N[C@@H](C)C(=O)NCC(C)(C)N[C@@H](C)C(=O)N[C@@H](Cc1ccc(O)cc1)C(=O)O, 15-membered ring, 24.0 h) was 32%.
In the case of `CC(C)C[C@@H]1NC(=O)[C@H](Cc2ccc(O)cc2)NC(=O)[C@H](C)NCCNC(=O)[C@H](C)NC1=O` [H-Leu-Ala-NHCH2CH2-Ala-Tyr-OH], the ring closure, isolated yield (from CC(C)C[C@H](N)C(=O)N[C@@H](C)C(=O)NCCN[C@@H](C)C(=O)N[C@@H](Cc1ccc(O)cc1)C(=O)O, 15-membered ring, 24.0 h) came out at 28%.
Turning to `CC(C)C[C@@H]1NC(=O)[C@H](Cc2ccc(O)cc2)NC(=O)[C@H](C)NC(=O)CN(C)C(=O)[C@H](C)NC1=O` [H-Leu-Ala-Sar-Ala-Tyr-OH], the ring closure, isolated yield (from CC(C)C[C@H](N)C(=O)N[C@@H](C)C(=O)N(C)CC(=O)N[C@@H](C)C(=O)N[C@@H](Cc1ccc(O)cc1)C(=O)O, 15-membered ring, 24.0 h) came to 36%.
On to `CC(C)C[C@@H]1NC(=O)[C@H](Cc2ccc(O)cc2)NC(=O)[C@H](C)NC(=O)CCNC(=O)[C@H](C)NC1=O` [H-Leu-Ala-βAla-Ala-Tyr-OH], for which the ring closure, isolated yield (from CC(C)C[C@H](N)C(=O)N[C@@H](C)C(=O)NCCC(=O)N[C@@H](C)C(=O)N[C@@H](Cc1ccc(O)cc1)C(=O)O, 16-membered ring, 24.0 h) came out at 39%.
Take `CC(C)C[C@@H]1NC(=O)[C@H](Cc2ccccc2)NC(=O)[C@H]([C@@H](C)OC(C)(C)C)NC2(CNC(=O)[C@H](C(C)C)NC(=O)[C@H](Cc3ccc(OC(C)(C)C)cc3)NC1=O)COC2` [H-Leu-Tyr(tBu)-Val-GOx-Thr(tBu)-Phe-OH]: the ring closure, isolated yield (from CC(C)C[C@H](N)C(=O)N[C@@H](Cc1ccc(OC(C)(C)C)cc1)C(=O)N[C@H](C(=O)NCC1(N[C@H](C(=O)N[C@@H](Cc2ccccc2)C(=O)O)[C@@H](C)OC(C)(C)C)COC1)C(C)C, 18-membered ring, 48.0 h) turned out to be 58%.
In the case of `CC(C)C[C@@H]1NC(=O)[C@H](Cc2c[nH]c3ccccc23)NC(=O)CNC2(COC2)[C@H](C)NC1=O` [H-Trp-Leu-AOx-Gly-OH], the ring closure, isolated yield (from CC(C)C[C@H](NC(=O)[C@@H](N)Cc1c[nH]c2ccccc12)C(=O)N[C@@H](C)C1(NCC(=O)O)COC1, 12-membered ring, 48.0 h) stood at 50%.
